Consider 24 compounds from patent publication US8586755B2, “Substituted nicotinamides as KCNQ2/3 modulators” (Grünenthal GmbH, priority 2009, dated 2013).

The target of this experiment is T1, KCNQ2/3 channels (Homo sapiens, UniProt O43525+O43526).
T1 construct: expressed in transfected cells
As to the kind of experiment: Fluorescence assay using a voltage sensitive dye (fluorimetry). It counts as cell-based. The note with it: CHO-K1 cells expressing KCNQ2/3 channels; for EC50: agonistic activity; for Emax / Fluorimetry % efficacy (retigabine 50 μM = 100%): retigabine 50 μM = 100%; for Emax: read-out: Fluorimetry % efficacy (retigabine 50 μM = 100%). The procedure: Pharmacological Experiments Fluorescence Assay Using a Voltage Sensitive Dye
Human CHO-K1 cells expressing KCNQ2/3 channels are cultivated adherently at 37° C., 5% CO2 and 95% humidity in cell culture bottles (e.g. 80 cm^2 TC flasks, Nunc) with DMEM-high glucose (Sigma Aldrich, D7777) including 10% FCS (PAN Biotech, e.g. 3302-P270521) or alternatively MEM Alpha Medium (1×, liquid, Invitrogen, #22571), 10% fetal calf serum (FCS) (Invitrogen, #10270-106, heat-inactivated) and the necessary selection antibiotics.
Before being sown out for the measurements, the cells are washed with a 1×DPBS buffer without Ca^2+/Mg^2+ (e.g. Invitrogen, #14190-094) and detached from the bottom of the culture vessel by means of Accutase (PAA Laboratories, #L11-007) (incubation with Accutase for 15 min at 37° C.). The cell count then present is determined using a CASY™ cell counter (TCC model, Schärfe System) in order subsequently to apply, depending on the density optimization for the individual cell line, 20,000-30,000 cells/well/100 μl of the described nutrient medium to 96-well measuring plates of the Corning™ CellBIND™ type (Flat Clear Bottom Black Polystyrene Microplates, #3340). Incubation is then carried out for one hour at room temperature, without gassing or adjusting the humidity, followed by incubation for 24 hours at 37° C., 5% CO2 and 95% humidity.
The voltage-sensitive fluorescent dye from the Membrane Potential Assay Kit (Red™ Bulk format part R8123 for FLIPR, MDS Analytical Technologies™) is prepared by dissolving the contents of a vessel Membrane Potential Assay Kit Red Component A in 200 ml of extracellular buffer (ES buffer, 120 mM NaCl, 1 mM KCl, 10 mM HEPES, 2 mM CaCl2, 2 mM MgCl2, 10 mM glucose; pH 7.4). After removal of the nutrient medium, the cells are washed with 200 μl of ES buffer, then covered with a layer of 100 μl of the dye solution prepared above and incubated for 45 min at room temperature with the exclusion of light.
The fluorescence measurements are carried out with a BMG Labtech FLUOstar™ BMG Labtech NOVOstar™ or BMG Labtech POLARstar™ instrument (525 nm excitation, 560 nm emission, Bottom Read mode). After incubation of the dye, 50 μl of the test substances in the desired concentrations, or 50 μl of ES buffer for control purposes, are introduced into separate cavities of the measuring plate and incubated for 30 min at room temperature while being shielded from light. The fluorescence intensity of the dye is then measured for 5 min and the fluorescence value F1 of each well is thus determined at a given, constant time. 15 μl of a […] KCl solution ([…]) are then added to each well. The change in fluorescence is subsequently measured until all the relevant measured values have been obtained (mainly 5-30 min). At a given time after KCl application, a fluorescence value F2 is determined, in this case at the time of the fluorescence peak.
For calculation, the fluorescence intensity F2 is compared with the fluorescence intensity F1, and the agonistic activity of the target compound on the potassium channel is determined therefrom. F2 and F1 are calculated as follows: […]
In order to determine whether a substance has agonistic activity,
A substance has an agonistic activity on the potassium channel when
[formula] it is possible to conclude that a target compound has agonistic activity if an increase in
[formula] is to be observed as the dosage of the target compound increases.
Calculations of EC50 values are carried out with the aid of ‘Prism v4.0’ software (GraphPad Software™).

What is called EC50 is the concentration needed to bring the measured effect to its halfway point. For `O=C(NCC1CC2CCC1C2)c1cccnc1SCCCc1ccccc1` (stereo not drawn) [compound 33, N-(5-Bicyclo[2.2.1]heptanyl-methyl)-2-(3-phenyl-propylsulfanyl)-pyridine-3-carboxylic acid amide], a half-maximal effect (EC50) was put at 451 nM and the Emax turned out to be 242%.

As for `O=C(NCC1CC2CCC1C2)c1cccnc1SCCCc1ccc(C(F)(F)F)cc1` (stereo not drawn) [compound 34, N-(5-Bicyclo[2.2.1]heptanyl-methyl)-2-[3-[4-(trifluoromethyl)-phenyl]-propylsulfanyl]-pyridine-3-carboxylic acid amide], a half-maximal response (EC50) required 463 nM and the Emax was found to be 204%.

Consider `O=C(NCC1CC2CCC1C2)c1cccnc1SCCCc1ccc(Cl)cc1` (stereo not drawn) [compound 35, N-(5-Bicyclo[2.2.1]heptanyl-methyl)-2-[3-(4-chlorophenyl)-propylsulfanyl]-pyridine-3-carboxylic acid amide], for which the EC50 came to 242 nM and the Emax amounted to 221%.

With `O=C(NCc1cc(F)cc(F)c1)c1cccnc1SCCCc1ccc(F)cc1` [compound 36, N-[(3,5-Difluoro-phenyl)-methyl]-2-[3-(4-fluorophenyl)-propylsulfanyl]-pyridine-3-carboxylic acid amide], the EC50 stood at 45 nM and the Emax stood at 78%.

As to `O=C(NCc1ccc(Cl)s1)c1cccnc1SCCCc1ccc(F)cc1` [compound 37, N-[(5-Chloro-thiophen-2-yl)-methyl]-2-[3-(4-fluorophenyl)-propylsulfanyl]-pyridine-3-carboxylic acid amide], the EC50 was determined as 74 nM and the Emax was determined as 89%.

In the case of `CC1(C)CC1CNC(=O)c1cccnc1SCCCc1ccc(F)cc1` (stereo not drawn) [compound 38, N-[(2,2-Dimethyl-cyclopropyl)-methyl]-2-[3-(4-fluorophenyl)-propylsulfanyl]-pyridine-3-carboxylic acid amide], the EC50 stood at 144 nM and the Emax was 176%.

For `O=C(NCC1CC2CCC1C2)c1cccnc1SCCCc1cccc(F)c1` (stereo not drawn) [compound 39, N-(5-Bicyclo[2.2.1]heptanyl-methyl)-2-[3-(3-fluorophenyl)-propylsulfanyl]-pyridine-3-carboxylic acid amide], a half-maximal effect (EC50) was put at 250 nM and the Emax is 250%.

Regarding `O=C(NCC1CCCCCC1)c1cccnc1SCCCc1ccc(F)cc1` [compound 41, N-(Cycloheptyl-methyl)-2-[3-(4-fluorophenyl)-propylsulfanyl]-pyridine-3-carboxylic acid amide], the EC50 is 157 nM and the Emax was found to be 159%.

Consider `CC(C)(C)CCNC(=O)c1cccnc1SCCCc1ccc(F)cc1` [compound 42], for which the midpoint of the response, the EC50, lay at 128 nM and the “Fluorimetry % efficacy (retigabine 50 μM = 100%)” value (“Fluorimetry % efficacy” below) is given as 164%.

With `O=C(CCSc1ncccc1C(=O)NCC1CC2CCC1C2)c1ccc(F)cc1` (stereo not drawn) [compound 43, N-(5-Bicyclo[2.2.1]heptanyl-methyl)-2-[[3-(4-fluorophenyl)-3-oxo-propyl]sulfanyl]-pyridine-3-carboxylic acid amide], the midpoint of the response, the EC50, lay at 896 nM and the Emax was 46%.

As to `O=C(CCSc1ncccc1C(=O)NCC1CC2CCC1C2)c1ccccc1` (stereo not drawn) [compound 44, N-(5-Bicyclo[2.2.1]heptanyl-methyl)-2-[(3-oxo-3-phenyl-propyl)sulfanyl]-pyridine-3-carboxylic acid amide], the EC50 is 2960 nM and the Emax is 167%.

As for `CCCCCCSc1ncccc1C(=O)NCC1CC2CCC1C2` (stereo not drawn) [compound 45, N-(5-Bicyclo[2.2.1]heptanyl-methyl)-2-(hexylsulfanyl)-pyridine-3-carboxylic acid amide], the EC50 stood at 1610 nM and the Emax was 224%.

Regarding `O=C(NCC1CC2CCC1C2)c1cccnc1SCCOc1ccccc1` (stereo not drawn) [compound 46, N-(5-Bicyclo[2.2.1]heptanyl-methyl)-2-(2-phenoxy-ethylsulfanyl)-pyridine-3-carboxylic acid amide], the EC50 worked out at 672 nM and the Emax worked out at 238%.

As for `O=C(NCC1CC2CCC1C2)c1cccnc1SCCOc1cccc(C(F)(F)F)c1` (stereo not drawn) [compound 47, N-(5-Bicyclo[2.2.1]heptanyl-methyl)-2-[2-[3-(trifluoromethyl)-phenoxy]-ethylsulfanyl]-pyridine-3-carboxylic acid amide], the concentration giving a half-maximal response (EC50) was 218 nM and the Emax was determined as 183%.

`O=C(NCCC(F)(F)F)c1cccnc1SCCCc1ccc(F)cc1` [compound 48, 2-[3-(4-Fluorophenyl)-propylsulfanyl]-N-(3,3,3-trifluoro-propyl)-pyridine-3-carboxylic acid amide]: the midpoint of the response, the EC50, lay at 148 nM and the Emax amounted to 183%.

`O=C(NCC1CC2CCC1C2)c1cccnc1SCCOc1ccc(F)cc1` (stereo not drawn) [compound 49, N-(5-Bicyclo[2.2.1]heptanyl-methyl)-2-[2-(4-fluoro-phenoxy)-ethylsulfanyl]-pyridine-3-carboxylic acid amide]: a half-maximal effect (EC50) was put at 231 nM and the Emax was determined as 174%.

In the case of `O=C(NCC1CC2CCC1C2)c1cccnc1SCCC(O)c1ccc(F)cc1` (stereo not drawn) [compound 50], the EC50 stood at 1490 nM and the “Fluorimetry % efficacy” value was 169%.

As to `O=C(NCC1CC2CCC1C2)c1cccnc1SCCCc1cccc2ccccc12` (stereo not drawn) [compound 52, N-(5-Bicyclo[2.2.1]heptanyl-methyl)-2-(3-naphthalen-1-yl-propylsulfanyl)-pyridine-3-carboxylic acid amide], a half-maximal effect (EC50) was put at 496 nM and the Emax worked out at 190%.

For `O=C(NCC1CCCCCCC1)c1cccnc1SCCCc1ccc(F)cc1` [compound 55, N-(Cyclooctyl-methyl)-2-[3-(4-fluorophenyl)-propylsulfanyl]-pyridine-3-carboxylic acid amide], the EC50 came to 227 nM and the Emax came out at 149%.

As for `COc1ccc(CCCSc2ncccc2C(=O)NCC2CC3CCC2C3)cc1` (stereo not drawn) [compound 56, N-(5-Bicyclo[2.2.1]heptanyl-methyl)-2-[3-(4-methoxyphenyl)-propylsulfanyl]-pyridine-3-carboxylic acid amide], the 50% effective concentration (EC50) is 1010 nM and the Emax is 251%.

With `COc1ccc(CNC(=O)c2cccnc2SCCCc2ccc(F)cc2)cc1` [compound 57, 2-[3-(4-Fluorophenyl)-propylsulfanyl]-N-[(4-methoxyphenyl)-methyl]-pyridine-3-carboxylic acid amide], the EC50 worked out at 252 nM and the Emax amounted to 83%.

As for `O=C(NCC1CC2CCC1C2)c1cccnc1SCCCc1ccc(O)cc1` (stereo not drawn) [compound 58], the EC50 amounted to 3880 nM and the “Fluorimetry % efficacy” value turned out to be 174%.

On to `O=C(NCc1cccc(C(F)(F)F)c1)c1cccnc1SCCCc1ccc(F)cc1` [compound 59, 2-[3-(4-Fluorophenyl)-propylsulfanyl]-N-[[3-(trifluoromethyl)phenyl]-methyl]-pyridine-3-carboxylic acid amide], for which the response was half-maximal at 210 nM (EC50) and the Emax was determined as 83%.

Take `O=C(NCC1CC2CCC1C2)c1cccnc1SCCCc1ccc(F)c(F)c1` (stereo not drawn) [compound 60, N-(5-Bicyclo[2.2.1]heptanyl-methyl)-2-[3-(3,4-difluoro-phenyl)-propylsulfanyl]-pyridine-3-carboxylic acid amide]: the EC50 is 263 nM and the Emax stood at 236%.
